This is an account of results in ChEMBL document CHEMBL1150200, “Apotirucallane Triterpenes from Dysoxylum roseum” (1991).

Converted amounts (≈) assume the structure as drawn.

The experiment deals with KB. The experiment can be described thus: Cytotoxicity against human KB cells. The conditions noted are these: read-out: ED50 (the source's name). Type of experiment: functional.

Consider `CC(C)=CC1C[C@@H]([C@@H]2CC=C3[C@]4(C)C(=O)C[C@@H]5[C@](C)(C=CC(=O)[C@]5(C)CO)[C@H]4CC[C@]32C)CO1` (stereo partly specified) [DYSORONE E], for which the EC50 amounted to 3.5 µg/mL (≈ 7.5 µM).
